Values joined by “and” are separate entries in the source; they are usually repeats but may differ in a detail not shown here. Equal entries are not always repeated. Where two headings read alike, the source gives them in different places.
How the values were obtained:
[1] = design: method as in PMID 29735645; conditions: cited from earlier work
[2] = system: procoagulant activity of viper venoms (citrated bovine plasma); experiment: plasma clotting assay, viper venoms overall; format: biochemical; conditions: range across all venoms; lower end of dimercaprol and marimastat ranges given as < 0.15; read-out: IC50, inhibition of procoagulant venom activity
Description: (§1) We used a previously developed plasma clotting assay[35] to measure venom-induced coagulation. Briefly, 100 ng of each venom was incubated at 37 °C for 30 min in the presence or absence of inhibitors (150 µM to 150 nM final concentrations). The final reaction consisted of 10 µl venom ± inhibitors in PBS, 20 µl 20 mM CaCl2, and 20 µl citrated bovine plasma (VWR). The samples were pipetted in triplicate into 384-well plates, and absorbance monitored at 595 nm for 2 h at 25 °C on an Omega FLUOstar instrument. We calculated the maximum clotting velocity of each of the curves as per clot waveform analysis, by calculating the maximum of the first derivative. The means of at least three independent experimental runs for each condition were plotted at each inhibitor concentration with SEMs.

[3] = system: procoagulant activity of Echis ocellatus venom (citrated bovine plasma); experiment: plasma clotting assay; format: biochemical; conditions: Echis ocellatus venom 100 ng, independent repeats
Description: as §1

[4] = system: procoagulant activity of Bothrops asper venom (citrated bovine plasma); experiment: plasma clotting assay; format: biochemical; conditions: Bothrops asper venom 100 ng, independent repeats
Description: as §1

[5] = system: SVMP bioactivity of the four active venoms (E. ocellatus, E. carinatus, B. asper, B. arietans); experiment: in vitro kinetic fluorogenic SVMP assay, viper venoms overall; format: biochemical; conditions: four active venoms; marimastat 150 nM to 150 µM, batimastat […] and 150 nM
Description: (§2) The SVMP assay measuring metalloproteinase activity and the plasma assay measuring coagulation in the presence or absence of venoms and inhibitors were performed as previously described. The SVMP assay kinetically measured cleavage of a quenched fluorogenic substrate (ES010, R&D Biosystems) by venom in the presence or absence of inhibitors.
(§3) Briefly, 10 µl of the substrate (supplied as a 6.2 mM stock) was used per 5 ml reaction buffer (150 mM NaCl, 50 mM Tris-Cl pH 7.5). Reactions consisted of 10 µl of venom ± inhibitors in PBS and 90 µl of substrate. Venoms were used at 1 µg/reaction and final inhibitor concentrations ranged from 150 µM to 150 nM. Samples were preincubated for 30 min at 37 °C and pipetted in triplicate into 384-well plates (Greiner). Thereafter, data was collected on an Omega FLUOstar (BMG Labtech) instrument at an excitation wavelength of 320 nm and emission wavelength of 405 nm at 25 °C for 1 h. The areas under the curve (AUCs) in the 0–40 min interval were calculated for each sample using MARS data analysis software v3.31 (BMG Labtech); this time point was chosen as the time where all fluorescence curves had reached a plateau (maximum fluorescence). For comparing venom-only samples, the means of at least three independent experimental runs for each condition, expressed as AUCs (n ≥ 3), were plotted at each inhibitor concentration with standard error of the mean (SEM). To determine inhibitor efficacy, the AUCs for each of the samples that consisted of venom + inhibitors were transformed and expressed as percentages of the venom-only sample (where the venom was 100%). The negative control (PBS-only) was also expressed relative to the venom, and the variation in background was presented as an interval delineated by the lowest and highest values in the PBS-only samples across concentrations and inhibitors for a specific venom.

[6] = format: in vivo, CD-1 mice; conditions: no venom; 60 µg of each drug, i.v.; listed as M
Description: All experimental animals (18–20 g [4–5 weeks old], male, CD-1 mice, Charles River, UK) were housed in groups of five with environmental enrichment, water and food ad libitum and their health monitored daily during acclimatization. The experimental design was based upon 3R-refined WHO-recommended protocols[28],[41], with animals randomized and observers being blinded to the experimental condition.
All experimental doses were prepared to a volume of 200 µl in PBS and incubated at 37 °C for 30 min prior to their intravenous injection via the tail vein. Animals were monitored for 6 h, and euthanized via rising concentrations of CO2 upon observation of previously defined humane end points that are predicators of lethality (e.g., seizure, pulmonary distress, paralysis, hemorrhage)[28]. Deaths, time of death, and survivors were recorded; where death/time of death actually represents the implementation of euthanasia based on defined humane end points.
For all experimental animals described above, blood samples were collected via cardiac puncture immediately post-euthanasia. Plasma was separated by centrifugation at 400 × g for 10 min and stored at −80 °C. We assessed the levels of thrombin-antithrombin complexes (TAT) and soluble thrombomodulin using mouse ELISA Kits (ab137994 and ab209880, Abcam), following the manufacturer’s protocol. […] The resulting data was plotted as the median of duplicate measurements for each animal and is presented with standard deviations (SDs).

[7] = system: Echis ocellatus venom SVMP activity; experiment: fluorogenic SVMP assay; format: biochemical; conditions: independent repeats
Description: as §2, §3

[8] = system: Bitis arietans venom SVMP activity; experiment: fluorogenic SVMP assay; format: biochemical; conditions: independent repeats
Description: as §2, §3

[9] = system: Echis carinatus venom SVMP activity; experiment: fluorogenic SVMP assay; format: biochemical; conditions: inhibitor 15 µM, independent repeats
Description: as §2, §3

[10] = system: Bothrops asper venom SVMP activity; experiment: fluorogenic SVMP assay; format: biochemical; conditions: independent repeats
Description: as §2, §3

[11] = system: procoagulant activity of Echis carinatus venom (citrated bovine plasma); experiment: plasma clotting assay; format: biochemical; design: key: max of first derivative of A595 clot curve (max clotting velocity); conditions: Echis carinatus venom 100 ng, independent repeats
Description: as §1

[12] = cited from earlier work
[13] = system: coagulopathic activity of Daboia russelii venom (citrated bovine plasma); experiment: plasma clotting assay; format: biochemical; design: key to maximum clotting velocity: max of first derivative of A595 clot curve (max clotting velocity); conditions: for maximum clotting velocity: Daboia russelii venom 100 ng, independent repeats
Description: as §1

In the case of `CNC(=O)[C@@H](NC(=O)[C@H](CC(C)C)[C@H](O)C(=O)NO)C(C)(C)C` [marimastat], the “solubility compared with batimastat” value [1] is given as “increased solubility”, the IC50 [2] is given as 150 to 1920 nM and the maximum clotting velocity ([3]; inhibitor 15 µM) is given as 0.0225 and 0.02559 and 0.02899. The maximum clotting velocity ([3]; inhibitor 150 µM) was 0.02088 and 0.02471 and 0.02435, the maximum clotting velocity ([4]; inhibitor 15 µM) was 0.02338 and 0.02609 and 0.02203 and the maximum clotting velocity ([4]; inhibitor 150 µM) was 0.02696 and 0.02551 and 0.02522. For the same compound, the “neutralization of SVMP bioactivity” value [5] was “complete in vitro neutralization”, the “thrombin-antithrombin (TAT) levels, drug-only control animals” value [6] was 16.1111 ng/mL and 15.7371 ng/mL and 12.5653 ng/mL and the “SVMP activity, percentage of the venom-only sample” value (shortened to “SVMP activity, percentage”) ([7]; inhibitor 15 µM) was 19.3205% and 20.8108% and 21.1203%. For the same compound, the “SVMP activity, percentage” value ([7]; inhibitor 150 µM) was 18.1136% and 19.6025% and 15.3204%, the “SVMP activity, percentage” value ([8]; inhibitor 15 µM) was 15.1667% and 15.8748% and 15.6727% and the “SVMP activity, percentage” value ([8]; inhibitor 150 µM) was 14.1911% and 15.0205% and 14.976%. The “SVMP activity, percentage” value [9] was 11.481% and 22.9494% and 21.3373%, the “SVMP activity, percentage” value ([10]; inhibitor 15 µM) was 33.0579% and 34.1722% and 57.3186% and the “SVMP activity, percentage” value ([10]; inhibitor 150 µM) was 29.6154% and 33.7275% and 43.4535%. The maximum clotting velocity ([11]; inhibitor 15 µM) was 0.03177 and 0.03235, the maximum clotting velocity ([11]; inhibitor 150 µM) was 0.03353 and 0.03265 and 0.02823 and the “daily doses with no notable side effects” value ([12]; 28 days, patients with advanced pancreatic cancer) was 75 mg. The “single doses with no notable side effects” value [12] was “up to 800 mg”, the “bidaily doses with no notable side effects” value ([12]; for 6.5 days) was 200 mg and the oral bioavailability ([12]; no reference given) was 70%. For the same compound, the half-life ([12]; oral) was 8 to 10 h, the “time to peak plasma concentrations post-administration” value ([12]; oral) was 1.5 to 3 h and the “oral bioavailability” value ([12]; vs parenteral administration of batimastat) was “excellent oral bioavailability”. The “effect on clotting after complete neutralization of SVMP activity” value ([13]; D. russelii venom, high doses) was “revealed clear venom anticoagulant effects”, the maximum clotting velocity ([13]; inhibitor 15 µM) was 0.01941 and 0.01206 and 0.01103 and the maximum clotting velocity ([13]; inhibitor 150 µM) was 0.005735 and 0.003235.
